The values that follow come from patent US9527852B2 (Neuropore Therapies, Inc., priority 2012, dated 2016).

For one data set, the target named is Recombinant α-synuclein (Homo sapiens, UniProt P37840). Put plainly: Cell-free α-synuclein aggregation assay (SDS-PAGE, immunoblot). The class given is biochemical. Particulars: 10 μM α-synuclein, 37° C. 16 h then 56° C. 6 h, immunoblot (FIG. 1). As for the experimental part:
Recombinant α-synuclein (10 μM) are incubated at 37° C. for 16 h and then at 56° C. for 6 h with test compound. […] After incubation, the mixture is run on a SDS-PAGE gel, followed by immunoblot testing with α-synuclein antibodies.

Data set [1] concerns the target T1, α-synuclein (wild type) expressed by lentivirus in a neuronal cell line (Homo sapiens, UniProt P37840).
T1 construct: expressed in transfected cells
Put plainly: Cell-based α-synuclein aggregation by immunoblot. The following applies: soluble and insoluble fractions; test compound 0, 0.1, 1 and 10 μM for 24 h. In general terms: In western blotting, separated proteins are transferred to a membrane and probed.

Data set [2] concerns the target T1, α-synuclein (wild type) expressed by lentivirus in a neuronal cell line. Put plainly: Cell-based α-synuclein accumulation by confocal microscopy. Particulars: test compound 0, 0.1, 1 and 10 μM for 24 h (FIG. 2).
The subject of data set [3] is Neuronal cells expressing high levels of α-synuclein. As to the kind of experiment: Neurite outgrowth (Tubulin III antibody). Type of data set: cell-based. Particulars: 0.1 and 1.0 μM (FIG. 3A).
The subject of data set [4] is neuronal cells infected with LV-α-synuclein. As to the kind of experiment: Ca2+ levels by FLIPR assay (Fluo-4). Type of data set: cell-based. Particulars: 0, 0.01, 0.1 and 1 μM for 24 h in serum free media, Fluo-4 (FIG. 3B). As for the experimental part:
(§1) Next, to ascertain the effects on neuronal activity, cells were infected with LV-α-synuclein for 24 h, treated with Example 2 at 0, 0.01, 0.1 and 1 μM for 24 h in serum free media, loaded with Fluo-4 or calcein, and analyzed by FLIPR assay to determine Ca^2+ and calcein levels. […] Finally, to examine the effects Example 2 on neuronal survival, an MTT cell viability assay was performed. […] All cell free and cell based assays were repeated at least 3 times and experiments were performed blinded to sample identity.

For data set [5] the test system is unchanged. As to the kind of experiment: Calcein assay of membrane integrity (FLIPR). Particulars: for Percent reversal of α-Syn mediated disruption of cell integrity (0.01 μM test compound): calcein assay. Type of data set: cell-based. The method, then: as §1
In another data set the test system is neuronal cells. Put plainly: MTT cell viability assay. The class given is cell-based. As for the experimental part:
as §1
On the technique in general: Formazan colour is commonly taken as a measure of viable cells.

For the compound `CCCCc1cc(NC(=O)NCCN2CCN(C)CC2)cc(O)c1Cc1c[nH]c2ccccc12` [Example 2, 1-(4-((1H-Indol-3-yl)methyl)-3-butyl-5-hydroxyphenyl)-3-(2-(4-methylpiperazin-1-yl)ethyl)urea], the “inhibition of aggregation of α-synuclein into oligomers” value at Recombinant α-synuclein is “capable of inhibiting the aggregation of α-synuclein into oligomers in a concentration-dependent manner”. The “reduction in the levels of aggregates in the various fractions (immunoblot)” value in data set [1] is given as 50-60%. Further, the “reduction in the level of aggregates in the neuronal cell bodies and neurites (confocal microscopy)” value in data set [2] is recorded as 60-65%. In data set [3], the “effect on neurite extension and cellular morphology” value was “ameliorated the deleterious effects on neurite extension and improved cellular morphology”. In addition, the “effect on Ca2+ levels” value in data set [4] was “restored concentrations of Ca^2+ to those in cells not infected with LV-α-synuclein”. The “effect on calcein retention in the cytoplasm” value in data set [5] (0, 0.01, 0.1 and 1 μM for 24 h in serum free media (FIG. 3C)) is reported as “reversed the effect of α-synuclein on levels of calcein”. Further, the “Percent reversal of α-Syn mediated disruption of cell integrity (0.01 μM test compound)” value (“Percent reversal” below) in data set [5] is given as 34.1%. For the same compound, in the data set on neuronal cells (at 10 μM (FIG. 3D)), the “toxicity in MTT cell viability assay” value was “mild toxicity”. In addition, the “toxic effects in MTT cell viability assay” value with neuronal cells (doses ranging from 0.1-10 μM (FIG. 3D)) is on record as “no toxic effects”.

For the compound `CCc1cc(NC(=O)NCCN2CCN(C)CC2)ccc1Cc1c[nH]c2ccccc12` [Example 3, 1-(4-((1H-indol-3-yl)methyl)-3-ethylphenyl)-3-(2-(4-methylpiperazin-1-yl)ethyl)urea], the “Percent reversal” value in data set [5] is given as 18.9%.

Take `CCc1cc(NC(=O)NCCN2CCNCC2)ccc1Cc1c[nH]c2ccccc12` [Example 5, 1-(4-((1H-Indol-3-yl)methyl)-3-ethylphenyl)-3-(2-(piperazin-1-yl)ethyl)urea]: the “Percent reversal” value in data set [5] is given as 89.5%.

Turning to `CCCCc1cc(OCc2c[nH]c3ccccc23)cc(OC(=O)NCCN2CCN(C)CC2)c1` [Example 1], the “Percent reversal” value in data set [5] is listed as 26.8%.

With `CCc1cc(NC(=O)NCCN)ccc1Cc1c[nH]c2ccccc12` [Example 4, 1-(4-((1H-indol-3-yl)methyl)-3-ethylphenyl)-3-(2-aminoethyl)urea], in data set [5], the “Percent reversal” value is reported as 25.9%.

In the case of `CCc1cc(NC(=O)NCCc2cnc[nH]2)ccc1Cc1c[nH]c2ccccc12` [Example 6, 1-(2-(1H-imidazol-5-yl)ethyl)-3-(4-((1H-indol-3-yl)methyl)-3-ethylphenyl)urea], the “Percent reversal” value in data set [5] was 37.5%.
